Results from patent US11795173B1, “Substituted pyridines as PARP1 inhibitors” (Xinthera, Inc., priority 2022, dated 2023).
pEC50, pIC50: −log10 of the molar value.

What was measured:
PARP2 = PARP2 (Homo sapiens (Human), UniProt Q9UGN5); assay: Biochemical fluorescence polarization (FP) assay, PARPi-FL displacement, PARP2; assay type: binding; settings: 20 nM protein, 3 nM PARPi-FL, 4 h at room temperature
Protocol: (§1) To characterize our compounds, we utilized an assay measuring the displacement of a commercially available fluorescently labeled PARP 1/2 inhibitor (PARPi-FL, Tocris Biosciences, #6461) as exemplified in assays performed in WO2014/064149 and WO2021/013735A1. The assay was performed utilizing the following method: Compounds were dissolved in DMSO an Echo550 liquid handler was utilized to make serial dilations in the desired concentration range in Optiplate-384F plates. 100% DMSO was used for the high (with protein) and low (without protein) control samples. 20 nL of compound or DMSO alone was added to individual assay plate wells. […] The PARPi-FL was then added at a final concentration of 3 nM. The assay plate is centrifuged at 1000 rpm for 1 min and incubated for 4 h at room temperature. […] XLFit (equation 201) is used to calculate a reported IC50 for each compound.

PARP1 = PARP1 (Homo sapiens (Human), UniProt P09874); assay: Biochemical fluorescence polarization (FP) assay, PARPi-FL displacement, PARP1; assay type: binding; settings: 20 nM protein, 3 nM PARPi-FL, 4 h at room temperature
Sequence of PARP1 (P09874 whole entry): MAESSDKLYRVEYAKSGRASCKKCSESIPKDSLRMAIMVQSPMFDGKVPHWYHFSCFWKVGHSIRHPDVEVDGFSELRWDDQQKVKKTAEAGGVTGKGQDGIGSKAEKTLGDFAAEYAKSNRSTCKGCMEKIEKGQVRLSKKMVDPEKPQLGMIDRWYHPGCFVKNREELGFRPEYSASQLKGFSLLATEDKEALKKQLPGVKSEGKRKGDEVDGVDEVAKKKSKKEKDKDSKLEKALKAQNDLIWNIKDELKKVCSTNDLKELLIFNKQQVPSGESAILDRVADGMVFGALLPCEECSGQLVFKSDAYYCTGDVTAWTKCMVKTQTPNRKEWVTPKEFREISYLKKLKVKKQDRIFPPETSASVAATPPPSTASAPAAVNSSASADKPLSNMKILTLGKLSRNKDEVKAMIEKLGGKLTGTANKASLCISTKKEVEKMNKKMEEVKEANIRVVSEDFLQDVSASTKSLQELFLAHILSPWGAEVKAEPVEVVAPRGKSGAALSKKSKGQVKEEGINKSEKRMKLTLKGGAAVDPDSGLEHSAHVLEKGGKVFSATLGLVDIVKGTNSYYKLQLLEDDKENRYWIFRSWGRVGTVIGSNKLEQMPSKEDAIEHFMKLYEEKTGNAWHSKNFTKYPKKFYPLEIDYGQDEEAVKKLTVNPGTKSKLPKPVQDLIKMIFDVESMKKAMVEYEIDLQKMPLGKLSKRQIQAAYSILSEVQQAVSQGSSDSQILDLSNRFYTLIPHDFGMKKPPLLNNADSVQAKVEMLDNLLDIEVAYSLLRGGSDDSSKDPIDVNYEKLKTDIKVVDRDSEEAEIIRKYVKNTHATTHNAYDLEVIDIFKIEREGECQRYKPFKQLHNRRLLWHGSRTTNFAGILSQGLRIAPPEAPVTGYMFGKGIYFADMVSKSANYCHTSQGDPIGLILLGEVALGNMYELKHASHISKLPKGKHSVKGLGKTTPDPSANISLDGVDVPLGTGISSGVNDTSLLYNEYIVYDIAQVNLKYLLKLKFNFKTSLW
Protocol: as §1

DLD-1 BRCA2(−/−) cells = assay: Cell growth inhibition assay (CellTiter-Glo), DLD-1 BRCA2(−/−); assay type: cell-based; settings: Homo sapiens, DLD-1, 168 h; cell viability, CellTiter Glo 2.0, 7 days
Protocol: The objective of this study is to evaluate the effect of compound disclosed herein on cell proliferation through the cell viability assay in DLD-1 BRCA2(−/−) and parental isogenic pair and MDA-MB-436 (mutated BRCA1) cell lines.
DLD-1 BRCA2(−/−) and parental isogenic pair were cultured in RPMI 1640 supplemented with 10% fetal bovine serum (FBS), and MDA-MB-436 cells were cultured in DMEM supplemented with 10% FBS. Both are culture at 37° C. with 5% CO2. […] The cells were seeded into the plate in the density of 50 cells/well (DLD-1 parental), 200 cells/well (DLD-1 BRCA2−/−), or 500 cells/well (MDA-MB-436). After a short spun, the cells were cultured in a well moisturized incubator at 37° C. with 5% CO2 for 7 days without disturbance. The cell viability was measured by CellTiter Glo 2.0 assay kit (Promega, G9243), and growth inhibition rate was calculated and plotted against final compound concentration, and the data were fitted in Xfit to generate IC50.

[1] = tested on: MDA-MB-436 (mutated BRCA1) cells; assay: Cell growth inhibition assay (CellTiter-Glo), MDA-MB-436; assay type: cell-based; settings: Homo sapiens, MDA-MB-436, 168 h; cell viability, CellTiter Glo 2.0, 7 days
Excerpt: The objective of this study is to evaluate the effect of compound disclosed herein on cell proliferation through the cell viability assay in DLD-1 BRCA2(−/−) and parental isogenic pair and MDA-MB-436 (mutated BRCA1) cell lines. The CellTiter-Glo (CTG) based cell viability assay is designed to determine the number of viable cells in the culture because of compound effect, by quantifying ATP, which indicates the presence of metabolically active cells.
DLD-1 BRCA2(−/−) and parental isogenic pair were cultured in RPMI 1640 supplemented with 10% fetal bovine serum (FBS), and MDA-MB-436 cells were cultured in DMEM supplemented with 10% FBS. Both are culture at 37° C. with 5% CO2. Invention compounds were distributed to the 384 well plate (Corning, 3764) using Echo acoustic liquid handler to form a 1:3 serially diluted final concentration with top dose of 10 or 30 μM. The cells were seeded into the plate in the density of 50 cells/well (DLD-1 parental), 200 cells/well (DLD-1 BRCA2−/−), or 500 cells/well (MDA-MB-436). After a short spun, the cells were cultured in a well moisturized incubator at 37° C. with 5% CO2 for 7 days without disturbance. The cell viability was measured by CellTiter Glo 2.0 assay kit (Promega, G9243), and growth inhibition rate was calculated and plotted against final compound concentration, and the data were fitted in Xfit to generate IC50.

Sequence of PARP2 (Q9UGN5 whole entry): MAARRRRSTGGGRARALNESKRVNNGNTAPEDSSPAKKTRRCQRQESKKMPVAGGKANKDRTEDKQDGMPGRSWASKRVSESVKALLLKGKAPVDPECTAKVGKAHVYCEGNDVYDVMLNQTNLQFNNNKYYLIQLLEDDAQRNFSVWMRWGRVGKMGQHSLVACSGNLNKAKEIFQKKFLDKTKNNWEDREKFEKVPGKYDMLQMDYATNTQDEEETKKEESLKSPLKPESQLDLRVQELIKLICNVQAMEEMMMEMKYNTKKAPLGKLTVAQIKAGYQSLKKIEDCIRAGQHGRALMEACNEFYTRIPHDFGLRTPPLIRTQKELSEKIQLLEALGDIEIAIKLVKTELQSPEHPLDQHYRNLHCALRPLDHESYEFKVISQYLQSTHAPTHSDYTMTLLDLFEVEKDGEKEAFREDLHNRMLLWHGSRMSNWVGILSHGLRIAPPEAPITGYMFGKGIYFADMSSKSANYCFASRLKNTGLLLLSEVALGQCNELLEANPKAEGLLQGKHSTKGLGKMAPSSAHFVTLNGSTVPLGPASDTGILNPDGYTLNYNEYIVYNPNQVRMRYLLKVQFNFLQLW

Row | pIC50 (PARP2) | pIC50 (PARP1) | pEC50 (DLD-1 BRCA2(−/−) cells) | pEC50 [1] | SMILES
1 | < 4.00 | 7.96 | 9.02 | 9.10 | [2H]C([2H])([2H])NC(=O)c1ccc(N2CCN(Cc3ccc4c([nH]c(=O)c5c(F)cnn54)c3F)CC2)c(F)n1 (single isomer, unassigned) [Example 33]
2 | < 4.00 | 7.40 | 9.00 | 8.96 | [2H]C([2H])(c1ccc2c([nH]c(=O)c3c(F)cnn32)c1F)N1CCN(c2ccc(C(=O)NC)nc2F)CC1 (single isomer, unassigned) [Example 34]
3 | < 4.00 | 7.25 | 8.19 | 8.34 | [2H]C([2H])([2H])NC(=O)c1ccc(N2CCN(Cc3ccc4c([nH]c(=O)c5ccoc54)c3F)CC2)c(F)n1 [Example 30]
